Data taken from patent publication US6727244B2, “Mammalian metabolites of a tachykinin receptor antagonist” (Merck & Co., Inc., priority 2000, dated 2004).

Key:
human NK1 receptor = molecular target: T1, human NK1 receptor (Homo sapiens, UniProt P25103); experiment: human NK1 receptor binding assay (125I-substance P, COS or CHO cells)
T1 construct: expressed in transfected cells
Protocol: To express the cloned human neurokinin-1 receptor (NKIR) transiently in COS, the cDNA for the human NKIR was cloned into the expression vector pCDM9 which was derived from pCDM8 (INVITROGEN) by inserting the ampicillin resistance gene (nucleotide 1973 to 2964 from BLUESCRIPT SK+) into the Sac II site. Transfection of 20 ug of the plasmid DNA into 10 million COS cells was achieved by electroporation in 800 ul of transfection buffer (135 mM NaCl, 1.2 mM CaCl2, 1.2 mM MgCl2, 2.4 mM K2HPO4, 0.6 mM KH2PO4, 10 mM glucose, 10 mM HEPES pH 7.4) at 260 V and 950 uF using the IBI GENEZAPPER (IBI, New Haven, Conn.). The cells were incubated in 10% fetal calf serum, 2 mM glutamine, 100U/ml penicillin-streptomycin, and 90% DMEM media (GIBCO, Grand Island, N.Y.) in 5% CO2 at 37° C. for three days before the binding assay.
To establish a stable cell line expressing the cloned human NK1R, the cDNA was subcloned into the vector pRcCMV (INVITROGEN). Transfection of 20 ug of the plasmid DNA into CHO cells was achieved by electroporation in 800 ul of transfection buffer suplemented with 0.625 mg/ml Herring sperm DNA at 300 V and 950 uF using the IBI GENEZAPPER (IBI). The transfected cells were incubated in CHO media [10 % fetal calf serum, 100 U/ml pennicilin-streptomycin, 2 mM glutamine, 1/500 hypoxanthine-thymidine (ATCC), 90% IMDM media (JRH BIOSClENCES, Lenexa, Kans.), 0.7 mg/ml G418 (GIBCO)] in 5% CO2 at 37° C. until colonies were visible. Each colony was separated and propagated. The cell clone with the highest number of human NK1R was selected for subsequent applications such as drug screening.
The binding assay of human NK1R expressed in either COS or CHO cells is based on the use of ^125I-substance P (^125I-SP, from DU PONT, Boston, Mass.) as a radioactively labeled ligand which competes with unlabeled substance P or any other ligand for binding to the human NK1R. Monolayer cell cultures of COS or CHO were dissociated by the non-enzymatic solution (SPECIALTY MEDIA, Lavallette, N.J.) and resuspended in appropriate volume of the binding buffer (50 mM Tris pH 7.5, 5 mM MnCl2, 150 mM NaCl, 0.04 mg/ml bacitracin, 0.004 mg/ml leupeptin, 0.2 mg/ml BSA, 0.01 mM phosphoramidon) such that 200 ul of the cell suspension would give rise to about 10,000 cpm of specific ^125I-SP binding (approximately 50,000 to 200,000 cells). […] The bound radioactivity was separated from unbound radioactivity by GF/C filter (BRANDEL, Gaithersburg, Md.) which was pre-wetted with 0.1 % polyethylenimine. The filter was washed with 3 ml of wash buffer (50 mM Tris pH 7.5, 5 mM MnCl2, 150 mM NaCl) three times and its radioactivity was determined by gamma counter.

[1] = oxidative metabolism in liver microsomes from humans; type: in vitro ADME; conditions: human liver microsomes, 15 min incubation
Protocol: All liver microsomal and cytosolic fractions were prepared using the following procedure. Thawed livers were homogenized with 2 volumes of 50 mM Tris-buffer (pH 7.5) containing 1.15% KCl. For microsomal and cytosolic preparations, the homogenate was centrifuged for 20 min at 9,000×g and the resulting supernatant was centrifuged for 60 min at 105,000×g. The resulting cytosolic fractions were re-centrifuged at 105,000×g for 60 min. Fractions of cytosol were aliquoted into small tubes and stored at −70° C. Subsequently, the microsomal pellets were washed with 10 mM EDTA containing 1.15% KCl and were centrifuged at 105,000×g for 60 min. Washed microsomes were resuspended in 10 mM potassium phosphate buffer (pH 7.4) containing 250 mM sucrose, aliquoted into small tubes, and stored at −70° C. Protein concentrations were determined by a modified Lowry assay (Smith et al., 1985). The specific cytochrome P450 content in each microsomal preparation was measured as described by Omura and Sato, J. Biol. Chem. 239, 2370-2378 (1964). […]
Method A was conducted on a Shimadzu HPLC system (Shimadzu Scientific Instruments Inc., Columbia Md.). The parent compounds and their metabolites were monitored directly using a radiometric detector (INUS Systems Inc. Tampa, Fla.) and Ultima-Flow M (Packard Instrument Co., Meridan Conn.) as scintillant at a flow rate of 3 mL/min. […]

T1 sequence (P25103 whole entry): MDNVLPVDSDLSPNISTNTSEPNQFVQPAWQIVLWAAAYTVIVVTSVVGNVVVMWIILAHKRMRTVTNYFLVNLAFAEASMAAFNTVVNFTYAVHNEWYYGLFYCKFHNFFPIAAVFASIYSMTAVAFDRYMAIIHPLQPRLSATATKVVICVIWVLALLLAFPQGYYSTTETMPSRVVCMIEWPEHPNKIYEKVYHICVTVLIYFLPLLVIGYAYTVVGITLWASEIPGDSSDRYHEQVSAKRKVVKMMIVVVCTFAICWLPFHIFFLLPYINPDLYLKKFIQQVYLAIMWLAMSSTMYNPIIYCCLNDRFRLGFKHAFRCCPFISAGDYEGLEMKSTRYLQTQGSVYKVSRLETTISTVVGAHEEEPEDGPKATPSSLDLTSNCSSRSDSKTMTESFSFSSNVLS

IC50 (human NK1 receptor): 1 nM
parent compound remained after incubation [1]: ~50%
Structure (SMILES): C[C@@H](O[C@H]1OCCN[C@H]1c1ccc(F)cc1)c1cc(C(F)(F)F)cc(C(F)(F)F)c1 [Metabolite M-1, (2R,3S)-2-[(1R)-1-[3,5-bis(trifluoromethyl)phenyl]ethoxy]-3-(4-fluorophenyl)morpholine]
